US20260274814A1, “THIENYL COMPOUNDS FOR THE TREATMENT OF A CENTRAL NERVOUS SYSTEM DISEASE OR DISORDER” (Coreterra Therapeutics, Inc., priority 2023, published 2026)
Where a name gives a salt, the structure may show the parent alone. Read-outs that look alike come from different tables or passages of the source.

System: mice
Experiment: Neuropharmacological Assay (SmartCube): automated behavioral signature of compound-treated mice compared with a database of reference drug classes
Assay type: in vivo
Details: for minimal effective dose: Mus musculus, ip, i.p., that dose is shown; for AD / AG / AN / AP / AX / CE / HL / MS / PS / SH / UK: 3.0 mg/kg i.p., 15 min before test
Outline: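 Probabilities reflect how closely the digitally recorded behavioural signature at 3.0 mg/kg i.p. matched each reference class (antipsychotic, anxiolytic, antidepressant etc.). Dosing occurred 15 min before testing. Minimal effective dose was the dose giving 45% or more total activity.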

[1] = dose having 45% or more total activity in SmartCube, if only one dose was tested, read-out: MED (minimal effective dose)
[2] = probability that activity matches this class of agents
[3] = minimal effective dose: dose having 45% or more total activity in SmartCube, if only one dose tested, read-out: MED

CNC1(C)CCc2c(F)csc2C1 (centres unmarked) [Compound 109, 3-fluoro-N, 6-dimethyl-5,7-dihydro-4H-benzothiophen-6-amine hydrochloride]
minimal effective dose [1]: < 3 mg/kg | AD [2]: ++++ (≥74%) | AG [2]: ND (^ <4%) | AN [2]: ND (^ <4%) | AP [2]: ND (^ <4%) | AX [2]: ND (^ <4%) | CE [2]: ND (^ <4%) | HL [2]: ND (^ <4%) | MS [2]: ND (^ <4%) | PS [2]: ND (^ <4%) | SH [2]: ND (^ <4%) | UK [2]: ND (^ <4%)

CNC1COc2cc(F)sc2C1 (centres unmarked) [Compound 130, 2-fluoro-N-methyl-6,7-dihydro-5H-thieno[3,2-b]pyran-6-amine hydrochloride]
minimal effective dose [1]: < 3 mg/kg | AD [2]: ND (^ <4%) | AG [2]: ND (^ <4%) | AN [2]: ND (^ <4%) | AP [2]: ++++ (≥74%) | AX [2]: ND (^ <4%) | CE [2]: ND (^ <4%) | HL [2]: ND (^ <4%) | MS [2]: ND (^ <4%) | PS [2]: ND (^ <4%) | SH [2]: ND (^ <4%) | UK [2]: ND (^ <4%)

CNC1COc2csc(C#N)c2C1 (centres unmarked) [Compound 139, 3-(methylamino)-3,4-dihydro-2H-thieno[3,4-b]pyran-5-carbonitrile hydrochloride]
minimal effective dose [1]: 0.3 mg/kg | AD [2]: ++ (≥24%) | AG [2]: ND (^ <4%) | AN [2]: ND (^ <4%) | AP [2]: ND (^ <4%) | AX [2]: ND (^ <4%) | CE [2]: ND (^ <4%) | HL [2]: ND (^ <4%) | MS [2]: ND (^ <4%) | PS [2]: ND (^ <4%) | SH [2]: ND (^ <4%) | UK [2]: ++ (≥24%)

CNC1CCc2scc(C(F)(F)F)c2C1 (centres unmarked) [Compound 140, N-methyl-3-(trifluoromethyl)-4,5,6,7-tetrahydrobenzothiophen-5-amine hydrochloride]
minimal effective dose [3]: 3 mg/kg | AD (SmartCube class probability): ND (^ <4%) | AG (SmartCube class probability): ND (^ <4%) | AN (SmartCube class probability): ND (^ <4%) | AP (SmartCube class probability): + (≥4%) | AX (SmartCube class probability): ND (^ <4%) | CE (SmartCube class probability): ND (^ <4%) | HL (SmartCube class probability): ND (^ <4%) | MS (SmartCube class probability): ND (^ <4%) | PS (SmartCube class probability): ND (^ <4%) | SH (SmartCube class probability): ND (^ <4%) | UK (SmartCube class probability): +++ (≥49%)

CNC1(C)CCc2csc(C(F)(F)F)c2C1 (centres unmarked) [Compound 141, N, 5-dimethyl-3-(trifluoromethyl)-6,7-dihydro-4H-2-benzothiophen-5-amine hydrochloride]
minimal effective dose [3]: 3 mg/kg | AD (SmartCube class probability): + (≥4%) | AG (SmartCube class probability): ND (^ <4%) | AN (SmartCube class probability): ND (^ <4%) | AP (SmartCube class probability): ND (^ <4%) | AX (SmartCube class probability): +++ (≥49%) | CE (SmartCube class probability): ND (^ <4%) | HL (SmartCube class probability): ND (^ <4%) | MS (SmartCube class probability): ND (^ <4%) | PS (SmartCube class probability): ND (^ <4%) | SH (SmartCube class probability): ND (^ <4%) | UK (SmartCube class probability): ND (^ <4%)

CNC1CCc2sc(F)c(C)c2C1 (centres unmarked) [Compound 142, 2-fluoro-N, 3-dimethyl-4,5,6,7-tetrahydrobenzothiophen-5-amine hydrochloride]
minimal effective dose [3]: 1 mg/kg | AD (SmartCube class probability): + (≥4%) | AG (SmartCube class probability): ND (^ <4%) | AN (SmartCube class probability): ++ (≥24%) | AP (SmartCube class probability): + (≥4%) | AX (SmartCube class probability): ND (^ <4%) | CE (SmartCube class probability): ND (^ <4%) | HL (SmartCube class probability): ND (^ <4%) | MS (SmartCube class probability): ND (^ <4%) | PS (SmartCube class probability): + (≥4%) | SH (SmartCube class probability): ND (^ <4%) | UK (SmartCube class probability): + (≥4%)

CNC1COc2csc(C(F)(F)F)c2C1 (centres unmarked) [Compound 153, N-methyl-5-(trifluoromethyl)-3,4-dihydro-2H-thieno[3,4-b]pyran-3-amine hydrochloride]
minimal effective dose [3]: 3 mg/kg | AD (SmartCube class probability): ++++ (≥74%) | AG (SmartCube class probability): ND (^ <4%) | AN (SmartCube class probability): ND (^ <4%) | AP (SmartCube class probability): ND (^ <4%) | AX (SmartCube class probability): ND (^ <4%) | CE (SmartCube class probability): ND (^ <4%) | HL (SmartCube class probability): ND (^ <4%) | MS (SmartCube class probability): ND (^ <4%) | PS (SmartCube class probability): ND (^ <4%) | SH (SmartCube class probability): ND (^ <4%) | UK (SmartCube class probability): ND (^ <4%)

CNC1CC=Cc2cscc2C1 (centres unmarked) [Compound 168, N-methyl-5,6-dihydro-4H-cyclohepta[c]thiophen-5-amine hydrochloride]
minimal effective dose [3]: 3 mg/kg | AD (SmartCube class probability): ND (^ <4%) | AG (SmartCube class probability): ND (^ <4%) | AN (SmartCube class probability): ND (^ <4%) | AP (SmartCube class probability): +++ (≥49%) | AX (SmartCube class probability): ND (^ <4%) | CE (SmartCube class probability): ND (^ <4%) | HL (SmartCube class probability): ND (^ <4%) | MS (SmartCube class probability): ND (^ <4%) | PS (SmartCube class probability): ND (^ <4%) | SH (SmartCube class probability): ND (^ <4%) | UK (SmartCube class probability): ND (^ <4%)

CNC1CCc2sc(C(F)(F)F)cc2C1 (centres unmarked) [Compound 173, N-methyl-2-(trifluoromethyl)-4,5,6,7-tetrahydrobenzothiophen-5-amine hydrochloride]
minimal effective dose [3]: > 3 mg/kg | AD (SmartCube class probability): ND (^ <4%) | AG (SmartCube class probability): ND (^ <4%) | AN (SmartCube class probability): ND (^ <4%) | AP (SmartCube class probability): ND (^ <4%) | AX (SmartCube class probability): ND (^ <4%) | CE (SmartCube class probability): ND (^ <4%) | HL (SmartCube class probability): ND (^ <4%) | MS (SmartCube class probability): ND (^ <4%) | PS (SmartCube class probability): ND (^ <4%) | SH (SmartCube class probability): ND (^ <4%) | UK (SmartCube class probability): ++ (≥24%)

CNC1CCc2c(C(F)(F)F)csc2C1 (centres unmarked) [Compound 180, N-methyl-3-(trifluoromethyl)-4,5,6,7-tetrahydrobenzothiophen-6-amine hydrochloride]
minimal effective dose [3]: 3 mg/kg | AD (SmartCube class probability): ND (^ <4%) | AG (SmartCube class probability): ND (^ <4%) | AN (SmartCube class probability): ND (^ <4%) | AP (SmartCube class probability): +++ (≥49%) | AX (SmartCube class probability): ND (^ <4%) | CE (SmartCube class probability): ND (^ <4%) | HL (SmartCube class probability): ND (^ <4%) | MS (SmartCube class probability): ND (^ <4%) | PS (SmartCube class probability): ND (^ <4%) | SH (SmartCube class probability): ND (^ <4%) | UK (SmartCube class probability): ND (^ <4%)

CNC1COc2cc(C)sc2C1 (centres unmarked) [Compound 181, N, 2-dimethyl-6,7-dihydro-5H-thieno[3,2-b]pyran-6-amine hydrochloride]
minimal effective dose [3]: > 3 mg/kg | AD (SmartCube class probability): ND (^ <4%) | AG (SmartCube class probability): ND (^ <4%) | AN (SmartCube class probability): + (≥4%) | AP (SmartCube class probability): + (≥4%) | AX (SmartCube class probability): ND (^ <4%) | CE (SmartCube class probability): ND (^ <4%) | HL (SmartCube class probability): ND (^ <4%) | MS (SmartCube class probability): ND (^ <4%) | PS (SmartCube class probability): ND (^ <4%) | SH (SmartCube class probability): ND (^ <4%) | UK (SmartCube class probability): ND (^ <4%)

CNC1(C)CCc2scc(F)c2C1 (centres unmarked) [Compound 182, 3-fluoro-N, 5-dimethyl-6,7-dihydro-4H-benzothiophen-5-amine hydrochloride]
minimal effective dose [3]: 3 mg/kg | AD (SmartCube class probability): ND (^ <4%) | AG (SmartCube class probability): ND (^ <4%) | AN (SmartCube class probability): ND (^ <4%) | AP (SmartCube class probability): ND (^ <4%) | AX (SmartCube class probability): ND (^ <4%) | CE (SmartCube class probability): ND (^ <4%) | HL (SmartCube class probability): ND (^ <4%) | MS (SmartCube class probability): ND (^ <4%) | PS (SmartCube class probability): + (≥4%) | SH (SmartCube class probability): + (≥4%) | UK (SmartCube class probability): ++ (≥24%)

Cc1cc2c(s1)CCC(N)C2 (centres unmarked) [Compound 185, 2-methyl-4,5,6,7-tetrahydrobenzothiophen-5-amine hydrochloride]
AD (SmartCube class probability): ND (^ <4%) | AG (SmartCube class probability): ND (^ <4%) | AN (SmartCube class probability): ND (^ <4%) | AP (SmartCube class probability): ND (^ <4%) | AX (SmartCube class probability): ND (^ <4%) | CE (SmartCube class probability): ND (^ <4%) | HL (SmartCube class probability): ND (^ <4%) | MS (SmartCube class probability): ND (^ <4%) | PS (SmartCube class probability): ND (^ <4%) | SH (SmartCube class probability): ND (^ <4%) | UK (SmartCube class probability): ++ (≥24%)

NC1CCc2scc(C(F)(F)F)c2C1 (centres unmarked) [Compound 186, 3-(trifluoromethyl)-4,5,6,7-tetrahydrobenzothiophen-5-amine hydrochloride]
minimal effective dose [3]: > 3 mg/kg | AD (SmartCube class probability): ND (^ <4%) | AG (SmartCube class probability): ND (^ <4%) | AN (SmartCube class probability): ND (^ <4%) | AP (SmartCube class probability): ND (^ <4%) | AX (SmartCube class probability): ND (^ <4%) | CE (SmartCube class probability): ND (^ <4%) | HL (SmartCube class probability): ND (^ <4%) | MS (SmartCube class probability): ND (^ <4%) | PS (SmartCube class probability): ND (^ <4%) | SH (SmartCube class probability): ND (^ <4%) | UK (SmartCube class probability): + (≥4%)

NC1CCc2scc(Cl)c2C1 (centres unmarked) [Compound 187, 3-chloro-4,5,6,7-tetrahydrobenzothiophen-5-amine hydrochloride]
minimal effective dose [3]: 3 mg/kg | AD (SmartCube class probability): ND (^ <4%) | AG (SmartCube class probability): ND (^ <4%) | AN (SmartCube class probability): ND (^ <4%) | AP (SmartCube class probability): ++ (≥24%) | AX (SmartCube class probability): ND (^ <4%) | CE (SmartCube class probability): ND (^ <4%) | HL (SmartCube class probability): ND (^ <4%) | MS (SmartCube class probability): ND (^ <4%) | PS (SmartCube class probability): ND (^ <4%) | SH (SmartCube class probability): ND (^ <4%) | UK (SmartCube class probability): ++ (≥24%)

Cc1cc2c(s1)CC(N)CO2 (centres unmarked) [Compound 188, 2-methyl-6,7-dihydro-5H-thieno[3,2-b]pyran-6-amine hydrochloride]
minimal effective dose [3]: > 3 mg/kg | AD (SmartCube class probability): ND (^ <4%) | AG (SmartCube class probability): ND (^ <4%) | AN (SmartCube class probability): ND (^ <4%) | AP (SmartCube class probability): ND (^ <4%) | AX (SmartCube class probability): + (≥4%) | CE (SmartCube class probability): ND (^ <4%) | HL (SmartCube class probability): ND (^ <4%) | MS (SmartCube class probability): ND (^ <4%) | PS (SmartCube class probability): ND (^ <4%) | SH (SmartCube class probability): ND (^ <4%) | UK (SmartCube class probability): ++ (≥24%)

CN(C)C1CCc2sc(Cl)cc2C1 (centres unmarked) [Compound 189, 2-chloro-N, N-dimethyl-4,5,6,7-tetrahydrobenzothiophen-5-amine hydrochloride]
minimal effective dose [3]: > 3 mg/kg | AD (SmartCube class probability): ND (^ <4%) | AG (SmartCube class probability): ND (^ <4%) | AN (SmartCube class probability): ND (^ <4%) | AP (SmartCube class probability): ND (^ <4%) | AX (SmartCube class probability): ND (^ <4%) | CE (SmartCube class probability): ND (^ <4%) | HL (SmartCube class probability): ND (^ <4%) | MS (SmartCube class probability): ND (^ <4%) | PS (SmartCube class probability): ND (^ <4%) | SH (SmartCube class probability): ND (^ <4%) | UK (SmartCube class probability): ++ (≥24%)
